The values that follow are results of earlier work, collected in US6629835B2, “Combinations of diterpene triepoxide lactones and ditepene lactones or triterpenes for synergistic inhibition of cyclooxygenase-2” (MetaProteomics, LLC, priority 2000, dated 2003).

The conditions of this data set: gastrointestinal disturbance, nausea and vomiting, hypotension, edema; cited from earlier work.

`CC(C)[C@]12O[C@H]1[C@@H]1O[C@]13[C@]1(O[C@H]1C[C@H]1C4=C(CC[C@@]13C)C(=O)OC4)[C@@H]2O` [Triptolide]: the “Patients showing some type of side effects” value is recorded as “Approximately 28%”.
